Assay results: US6800674B2, “Anthraquinone compound and water-based ink-jet recording ink containing the compound” (Mitsui Chemicals, Inc., priority 2000, dated 2004)

Legend:
Assay type in all cases: physicochemical
[1] = Evaluation of water resistance (OD1 after/before dipping in water); settings: aqueous ink, OD1 after dipping in water and air-drying
Experimental: (§1) Glycerin and water were added to the dispersion (A) of colored resin fine particles to obtain aqueous ink having a solid content of 15% by weight. This aqueous ink was used, and filled in an ink cartridge for a piezo-type ink jet printer, and printing and image recording were conducted with the same printer. The test was conducted on the following items.
(D) Evaluation of Water Resistance
With respect to a printed portion of a plain paper having a recorded image thereon for test, printing density (OD value) was measured with a reflection densitometer before dipping in water and after dipping in water and air-drying. Water resistance was evaluated upon comparing OD1.
OD1=(OD value after dipping in water and air-drying)/(OD value before dipping in water)×100[%]

[2] = Evaluation of light fastness (xenon fadeometer, OD2); settings: aqueous ink, ink production process Example 1; OD2 after 100 hours of irradiation
Experimental: as §1
(E) Evaluation of Light Fastness
Printing density (OD value) was measured using a xenon fadeometer (manufactured by Suga Shikenki) before irradiation and after 100 hours of irradiation. Light fastness was evaluated upon comparing OD2.
OD2=(OD value after irradiation)/(OD value before irradiation)×100[%]

[3] = as above; settings: aqueous ink, ink production process Example 2; OD2 after 100 hours of irradiation
[4] = ink production process Example 1
[5] = ink production process Example 2

D (Evaluation of water resistance) [1, 4] | E (Evaluation of light fastness) [2] | E (Evaluation of light fastness) [3] | D (Evaluation of water resistance) [1, 5] | SMILES
⊚ (OD value is 80 to less than 90%.) | ◯ (OD value is 70 to less than 80%.) | ◯ (OD value is 70 to less than 80%.) | ⊚ (OD value is 80 to less than 90%.) | Nc1ccccc1Oc1cc(O)c2c(c1N)C(=O)c1ccccc1C2=O [compound 4]
⊚⊚ (OD value is 90 to 100%.) | ⊚⊚ (OD value is 90 to 100%.) | ⊚⊚ (OD value is 90 to 100%.) | ⊚⊚ (OD value is 90 to 100%.) | CCCCCCN(CCCCCC)c1cccc(Oc2cc(O)c3c(c2N)C(=O)c2ccccc2C3=O)c1 [compound 10]
⊚⊚ (OD value is 90 to 100%.) | ⊚⊚ (OD value is 90 to 100%.) | ⊚⊚ (OD value is 90 to 100%.) | ⊚⊚ (OD value is 90 to 100%.) | CCCC(C)N(c1cccc(Oc2cc(O)c3c(c2N)C(=O)c2ccccc2C3=O)c1)C(C)CCC (stereo not drawn) [compound 11]
⊚⊚ (OD value is 90 to 100%.) | ⊚⊚ (OD value is 90 to 100%.) | ⊚⊚ (OD value is 90 to 100%.) | ⊚⊚ (OD value is 90 to 100%.) | CCN(CC)c1cccc(Oc2cc(O)c3c(c2N)C(=O)c2cc(C)ccc2C3=O)c1 [compound 13]
⊚⊚ (OD value is 90 to 100%.) | ⊚⊚ (OD value is 90 to 100%.) | ⊚⊚ (OD value is 90 to 100%.) | ⊚⊚ (OD value is 90 to 100%.) | CCCCN(CCCC)c1cccc(Oc2cc(O)c3c(c2N)C(=O)c2ccc(CC)cc2C3=O)c1 [compound 14]
◯ (OD value is 70 to less than 80%.) | Δ (OD value is 50 to less than 70%.) |  |  | Nc1ccccc1Sc1cc(O)c2c(c1N)C(=O)c1ccccc1C2=O [compound 22]
◯ (OD value is 70 to less than 80%.) | Δ (OD value is 50 to less than 70%.) |  |  | Nc1c(SCCOCCSc2cc(O)c3c(c2N)C(=O)c2ccccc2C3=O)cc(O)c2c1C(=O)c1ccccc1C2=O [compound 31]
◯ (OD value is 70 to less than 80%.) | ◯ (OD value is 70 to less than 80%.) |  |  | CCCCC(CC)C(=O)Nc1ccccc1Oc1cc(O)c2c(c1N)C(=O)c1ccccc1C2=O (stereo not drawn) [compound 33]
◯ (OD value is 70 to less than 80%.) | ◯ (OD value is 70 to less than 80%.) |  |  | CCCCC(CC)C(=O)Nc1cccc(Oc2cc(O)c3c(c2N)C(=O)c2ccccc2C3=O)c1 (stereo not drawn) [compound 34]
◯ (OD value is 70 to less than 80%.) | ◯ (OD value is 70 to less than 80%.) |  |  | Nc1c(Oc2ccccc2NC(=O)c2ccccc2)cc(O)c2c1C(=O)c1ccccc1C2=O [compound 35]
◯ (OD value is 70 to less than 80%.) | ◯ (OD value is 70 to less than 80%.) |  |  | CCCCN(CCCC)c1cccc(CCOc2cc(O)c3c(c2N)C(=O)c2ccccc2C3=O)c1 [compound 36]
◯ (OD value is 70 to less than 80%.) | ◯ (OD value is 70 to less than 80%.) |  |  | CCCCCCCCCc1ccc(Oc2cc(O)c3c(c2N)C(=O)c2ccccc2C3=O)cc1 [compound 38]
◯ (OD value is 70 to less than 80%.) | ◯ (OD value is 70 to less than 80%.) |  |  | CCCCC(CC)C(=O)Oc1ccc(Oc2cc(O)c3c(c2N)C(=O)c2ccccc2C3=O)cc1 (stereo not drawn) [compound 39]
◯ (OD value is 70 to less than 80%.) | ◯ (OD value is 70 to less than 80%.) |  |  | CCCCC(CC)COC(=O)CSc1ccc(Oc2cc(O)c3c(c2N)C(=O)c2ccccc2C3=O)cc1 (stereo not drawn) [compound 40]

Second part, the compound before the results:

SMILES | D (Evaluation of water resistance) [1, 4] | E (Evaluation of light fastness) [2] | E (Evaluation of light fastness) [3] | D (Evaluation of water resistance) [1, 5]
CCCCCCCCN(CCCCCCCC)c1cccc(Oc2cc(O)c3c(c2N)C(=O)c2ccccc2C3=O)c1 [Coloring matter No. 1] | ⊚⊚ (OD value is 90 to 100%.) | ⊚⊚ (OD value is 90 to 100%.) |  | 
CN(C)c1cccc(Oc2cc(O)c3c(c2N)C(=O)c2ccccc2C3=O)c1 [compound 5] | ⊚⊚ (OD value is 90 to 100%.) | ⊚ (OD value is 80 to less than 90%.) | ⊚ (OD value is 80 to less than 90%.) | ⊚⊚ (OD value is 90 to 100%.)
CCNc1cccc(Oc2cc(O)c3c(c2N)C(=O)c2ccccc2C3=O)c1 [compound 6] | ⊚⊚ (OD value is 90 to 100%.) | ⊚ (OD value is 80 to less than 90%.) | ◯ (OD value is 70 to less than 80%.) | ⊚⊚ (OD value is 90 to 100%.)
CCN(CC)c1cccc(Oc2cc(O)c3c(c2N)C(=O)c2ccccc2C3=O)c1 [compound 7] | ⊚⊚ (OD value is 90 to 100%.) | ⊚ (OD value is 80 to less than 90%.) | ⊚ (OD value is 80 to less than 90%.) | ⊚⊚ (OD value is 90 to 100%.)
CCCN(CCC)c1cccc(Oc2cc(O)c3c(c2N)C(=O)c2ccccc2C3=O)c1 [compound 8] | ⊚⊚ (OD value is 90 to 100%.) | ⊚⊚ (OD value is 90 to 100%.) | ⊚⊚ (OD value is 90 to 100%.) | ⊚⊚ (OD value is 90 to 100%.)
Nc1c(Oc2ccc(C(c3ccccc3)c3ccccc3)cc2)cc(O)c2c1C(=O)c1ccccc1C2=O [compound 12] | ⊚ (OD value is 80 to less than 90%.) | ◯ (OD value is 70 to less than 80%.) | ◯ (OD value is 70 to less than 80%.) | ⊚ (OD value is 80 to less than 90%.)
CCc1ccc2c(c1)C(=O)c1c(O)cc(Oc3cccc(N(CC)CC)c3)c(N)c1C2=O [compound 15] | ⊚⊚ (OD value is 90 to 100%.) | ⊚ (OD value is 80 to less than 90%.) | ⊚ (OD value is 80 to less than 90%.) | ⊚⊚ (OD value is 90 to 100%.)
CCCCC(CC)CC(=O)Nc1ccc(O)cc1Sc1cc(O)c2c(c1N)C(=O)c1ccccc1C2=O (stereo not drawn) [compound 19] | ◯ (OD value is 70 to less than 80%.) | Δ (OD value is 50 to less than 70%.) |  | 
CCCCCCCCOC(=O)CSc1cc(O)c2c(c1N)C(=O)c1ccccc1C2=O [compound 20] | ◯ (OD value is 70 to less than 80%.) | Δ (OD value is 50 to less than 70%.) |  | 
CCCCCCCCSc1cc(O)c2c(c1N)C(=O)c1ccccc1C2=O [compound 21] | ◯ (OD value is 70 to less than 80%.) | Δ (OD value is 50 to less than 70%.) |  | 
Nc1c(Oc2ccccc2)cc(O)c2c1C(=O)c1ccccc1C2=O [compound 23] | ◯ (OD value is 70 to less than 80%.) | Δ (OD value is 50 to less than 70%.) |  | 
Cc1cccc(Oc2cc(O)c3c(c2N)C(=O)c2ccccc2C3=O)c1 [compound 24] | ◯ (OD value is 70 to less than 80%.) | ◯ (OD value is 70 to less than 80%.) |  | 
Cc1ccc(CCCOc2cc(O)c3c(c2N)C(=O)c2ccccc2C3=O)cc1 [compound 25] | ◯ (OD value is 70 to less than 80%.) | ◯ (OD value is 70 to less than 80%.) |  | 
CCCCC(CC)COC(=O)CSc1cccc(Oc2cc(O)c3c(c2N)C(=O)c2ccccc2C3=O)c1 (stereo not drawn) [compound 26] | ◯ (OD value is 70 to less than 80%.) | ◯ (OD value is 70 to less than 80%.) |  | 
CCCCCCCCCCCCCCCCCCOC(=O)CSc1cc(O)c2c(c1N)C(=O)c1ccccc1C2=O [compound 27] | ◯ (OD value is 70 to less than 80%.) | Δ (OD value is 50 to less than 70%.) |  | 
CCCCC(CC)COC(=O)CSc1ccccc1Oc1cc(O)c2c(c1N)C(=O)c1ccccc1C2=O (stereo not drawn) [compound 28] | ◯ (OD value is 70 to less than 80%.) | ◯ (OD value is 70 to less than 80%.) |  | 
CCCCC(CC)COC(=O)CCSc1cc(O)c2c(c1N)C(=O)c1ccccc1C2=O (stereo not drawn) [compound 29] | ◯ (OD value is 70 to less than 80%.) | Δ (OD value is 50 to less than 70%.) |  | 
CCCCC(CC)COC(=O)CSc1cc(O)c2c(c1N)C(=O)c1ccccc1C2=O (stereo not drawn) [compound 30] | ◯ (OD value is 70 to less than 80%.) | Δ (OD value is 50 to less than 70%.) |  | 
CCCCOC(=O)CSc1cc(O)c2c(c1N)C(=O)c1ccccc1C2=O [compound 32] | ◯ (OD value is 70 to less than 80%.) | Δ (OD value is 50 to less than 70%.) |  | 
Nc1c(Oc2cccc(C(F)(F)F)c2)cc(O)c2c1C(=O)c1ccccc1C2=O [compound 37] | ◯ (OD value is 70 to less than 80%.) | ◯ (OD value is 70 to less than 80%.) |  | 
